Laboratory results from patent publication US11155557B2, “Pyrazolopyrimidine compounds and methods of use thereof” (Genentech, Inc., priority 2016, dated 2021).

Tests used:
[1] = target: isolated recombinant JAK2 kinase domain (Homo sapiens (Human), UniProt O60674); assay: JAK2 enzyme assay (Caliper LabChip, Ki); settings: read-out: JAK2 Ki
[2] = system: JAK1-dependent STAT6 phosphorylation in BEAS-2B human bronchial epithelial cells; assay: JAK1 pathway assay: IL-13 stimulated STAT6 phosphorylation in BEAS-2B cells; assay type: cell-based; settings: Homo sapiens, BEAS-2B, BEAS-2B cells, IL-13 stimulation; read-out: IL-13 p-STAT6 BEAS-2B IC50
Summary of the method: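 BEAS-2B bronchial epithelial cells plated one day before, run in complete growth medium. Phospho-STAT6 in lysates measured by MesoScale Discovery; EC50 reported.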

[3] = target: isolated recombinant JAK1 kinase domain (Homo sapiens (Human), UniProt P23458); assay: JAK1 enzyme assay (Caliper LabChip, Ki); assay type: biochemical
Method: The activity of the isolated recombinant JAK1 and JAK2 kinase domain was measured by monitoring phosphorylation of a peptide derived from JAK3 ([…] fluorescently labeled on the N-terminus with 5-carboxyfluorescein) using the Caliper LabChip R technology (Caliper Life Sciences, Hopkinton, Mass.).

isolated recombinant JAK1 kinase domain, sequence (P23458 875-1153): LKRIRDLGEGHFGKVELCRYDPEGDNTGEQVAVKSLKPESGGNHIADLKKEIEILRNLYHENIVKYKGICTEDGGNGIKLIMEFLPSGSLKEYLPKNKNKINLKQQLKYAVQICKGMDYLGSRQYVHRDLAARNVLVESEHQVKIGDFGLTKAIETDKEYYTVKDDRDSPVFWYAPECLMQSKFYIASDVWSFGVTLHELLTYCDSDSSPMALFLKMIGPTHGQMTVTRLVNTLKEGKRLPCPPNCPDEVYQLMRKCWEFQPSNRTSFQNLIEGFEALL
isolated recombinant JAK2 kinase domain, sequence (O60674 849-1124): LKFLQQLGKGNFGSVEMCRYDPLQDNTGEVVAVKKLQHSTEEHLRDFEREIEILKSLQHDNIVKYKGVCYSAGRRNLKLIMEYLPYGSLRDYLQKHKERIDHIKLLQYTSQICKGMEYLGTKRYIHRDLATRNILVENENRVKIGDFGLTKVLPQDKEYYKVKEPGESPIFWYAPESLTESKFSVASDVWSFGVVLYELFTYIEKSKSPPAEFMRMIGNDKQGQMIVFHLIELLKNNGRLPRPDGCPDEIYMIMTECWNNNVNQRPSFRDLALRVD

What does the source list for `COc1cc2ccsc2cc1-c1n[nH]cc1NC(=O)c1cnn2cccnc12` [Example 35, N-[3-(5-methoxybenzothiophen-6-yl)-1H-pyrazol-4-yl]pyrazolo[1,5-a]pyrimidine-3-carboxamide]?
Ki [1]: 0.11 nM; IC50 [2]: 3 nM; Ki [3]: 0.28 nM

For `CCOC(=O)c1cc2cc(-c3n[nH]cc3NC(=O)c3cnn4cccnc34)c(OC)cc2s1` [Example 36, ethyl 6-methoxy-5-[4-(pyrazolo[1,5-a]pyrimidine-3-carbonylamino)-1H-pyrazol-3-yl]benzothiophene-2-carboxylate], which Ki [1] is on record?
Its Ki is 0.49 nM.

What about the IC50 [2] of the same compound?
Its IC50 is 32 nM.

What about the Ki [3] of the same compound?
Its Ki is 0.65 nM.

Which Ki [1] does the source give for `CC1CNc2cc(OC(F)F)c(-c3n[nH]cc3NC(=O)c3cnn4cccnc34)cc2S1` (stereo not drawn) [Example 37, N-[3-[6-(difluoromethoxy)-2-methyl-3,4-dihydro-2H-1,4-benzothiazin-7-yl]-1H-pyrazol-4-yl]pyrazolo[1,5-a]pyrimidine-3-carboxamide] here?
Its Ki is 0.05 nM.

What about the IC50 [2] of the same compound?
The IC50 was 5 nM.

What about the Ki [3] of the same compound?
The Ki was 0.07 nM.

What does the source list for `CC1Sc2cc(-c3n[nH]cc3NC(=O)c3cnn4cccnc34)c(OC(F)F)cc2NC1=O` (stereo not drawn) [Example 39, N-[3-[6-(difluoromethoxy)-2-methyl-3-oxo-4H-1,4-benzothiazin-7-yl]-1H-pyrazol-4-yl]pyrazolo[1,5-a]pyrimidine-3-carboxamide]?
Ki [1]: 0.05 nM; IC50 [2]: 71 nM; Ki [3]: 0.06 nM

Which results are given for `O=C1COc2cc(-c3n[nH]cc3NC(=O)c3cnn4cccnc34)c(OC(F)F)cc2N1` [Example 40, N-[3-[6-(difluoromethoxy)-3-oxo-4H-1,4-benzoxazin-7-yl]-1H-pyrazol-4-yl]pyrazolo[1,5-a]pyrimidine-3-carboxamide]?
Ki [1]: 0.06 nM; IC50 [2]: 67 nM; Ki [3]: 0.09 nM

For `C[C@H]1COc2cc(-c3n[nH]cc3NC(=O)c3cnn4cccnc34)c(OC(F)F)cc2N1` [Example 42, N-[3-[(3S)-6-(difluoromethoxy)-3-methyl-3,4-dihydro-2H-1,4-benzoxazin-7-yl]-1H-pyrazol-4-yl]pyrazolo[1,5-a]pyrimidine-3-carboxamide], which Ki [1] is on record?
The Ki was 0.25 nM.

What about the IC50 [2] of the same compound?
The IC50 was 34 nM.

What about the Ki [3] of the same compound?
Its Ki is 0.44 nM.

With `C[C@@H]1COc2cc(-c3n[nH]cc3NC(=O)c3cnn4cccnc34)c(OC(F)F)cc2N1` [Example 43, N-[3-[(3R)-6-(difluoromethoxy)-3-methyl-3,4-dihydro-2H-1,4-benzoxazin-7-yl]-1H-pyrazol-4-yl]pyrazolo[1,5-a]pyrimidine-3-carboxamide] as the compound, how does the Ki [1] read?
The Ki was 0.17 nM.

And the IC50 [2]?
The IC50 was 12 nM.

And the Ki [3]?
The Ki was 0.25 nM.

Which Ki [1] does the source give for `O=C(Nc1cn(CC(=O)N2CCC(CN3CCOCC3)CC2)nc1-c1cc2c(cc1OC(F)F)NCCO2)c1cnn2cccnc12` [Example 44, N-[3-[6-(difluoromethoxy)-3,4-dihydro-2H-1,4-benzoxazin-7-yl]-1-[2-[4-(morpholinomethyl)-1-piperidyl]-2-oxo-ethyl]pyrazol-4-yl]pyrazolo[1,5-a]pyrimidine-3-carboxamide] here?
Its Ki is 0.51 nM.

What about the IC50 [2] of the same compound?
The IC50 was 45 nM.

And the Ki [3]?
Its Ki is 0.34 nM.

For `C[C@H]1CNc2cc(OC(F)F)c(-c3nn(CC(=O)N4CCC(CN5CCOCC5)CC4)cc3NC(=O)c3cnn4cccnc34)cc2S1` [Example 45, N-[1-[2-[4-(morpholinomethyl)-1-piperidyl]-2-oxo-ethyl]-3-[(2S)-6-(difluoromethoxy)-2-methyl-3,4-dihydro-2H-1,4-benzothiazin-7-yl]pyrazol-4-yl]pyrazolo[1,5-a]pyrimidine-3-carboxamide], which Ki [1] is on record?
Its Ki is 0.24 nM.

What about the IC50 [2] of the same compound?
The IC50 was 29 nM.

And the Ki [3]?
Its Ki is 0.22 nM.

`C[C@@H]1CNc2cc(OC(F)F)c(-c3nn(CC(=O)N4CCC(CN5CCOCC5)CC4)cc3NC(=O)c3cnn4cccnc34)cc2S1` [Example 46, N-[1-[2-[4-(morpholinomethyl)-1-piperidyl]-2-oxo-ethyl]-3-[(2R)-6-(difluoromethoxy)-2-methyl-3,4-dihydro-2H-1,4-benzothiazin-7-yl]pyrazol-4-yl]pyrazolo[1,5-a]pyrimidine-3-carboxamide] was tested. Which Ki [1] did it give?
Its Ki is 0.31 nM.

What about the IC50 [2] of the same compound?
The IC50 was 31 nM.

And the Ki [3]?
Its Ki is 0.25 nM.

What does the source list for `O=C(Nc1cn(CC(=O)N2CCC(N3CCOCC3)CC2)nc1-c1cc2c(cc1OC(F)F)NCCO2)c1cnn2cccnc12` [Example 47, N-[3-[6-(difluoromethoxy)-3,4-dihydro-2H-1,4-benzoxazin-7-yl]-1-[2-(4-morpholino-1-piperidyl)-2-oxo-ethyl]pyrazol-4-yl]pyrazolo[1,5-a]pyrimidine-3-carboxamide]?
Ki [1]: 0.45 nM; IC50 [2]: 106 nM; Ki [3]: 0.31 nM

For `O=C(Nc1cn(CC(=O)N2CCC(O)CC2)nc1-c1cc2c(cc1OC(F)F)NCCO2)c1cnn2cccnc12` [Example 48, N-[3-[6-(difluoromethoxy)-3,4-dihydro-2H-1,4-benzoxazin-7-yl]-1-[2-(4-hydroxy-1-piperidyl)-2-oxo-ethyl]pyrazol-4-yl]pyrazolo[1,5-a]pyrimidine-3-carboxamide], which Ki [1] is on record?
Its Ki is 0.51 nM.

And the IC50 [2]?
The IC50 was greater than 1000 nM.

And the Ki [3]?
The Ki was 0.3 nM.

Which Ki [1] does the source give for `O=C(Nc1cn(CC(=O)N2CC=CCC2)nc1-c1cc2c(cc1OC(F)F)NCCO2)c1cnn2cccnc12` [Example 49, N-[3-[6-(difluoromethoxy)-3,4-dihydro-2H-1,4-benzoxazin-7-yl]-1-[2-(3,6-dihydro-2H-pyridin-1-yl)-2-oxo-ethyl]pyrazol-4-yl]pyrazolo[1,5-a]pyrimidine-3-carboxamide] here?
The Ki was 0.29 nM.

What about the IC50 [2] of the same compound?
The IC50 was 19 nM.

What about the Ki [3] of the same compound?
The Ki was 0.23 nM.

Which results are given for `O=C(Nc1cn(CC(=O)N2CC=CCC2)nc1-c1cc2c(cc1OC(F)F)NCCS2)c1cnn2cccnc12` [Example 50, N-[3-[6-(difluoromethoxy)-3,4-dihydro-2H-1,4-benzothiazin-7-yl]-1-[2-(3,6-dihydro-2H-pyridin-1-yl)-2-oxo-ethyl]pyrazol-4-yl]pyrazolo[1,5-a]pyrimidine-3-carboxamide]?
Ki [1]: 0.1 nM; IC50 [2]: 10 nM; Ki [3]: 0.11 nM

`O=C(Nc1cn(CC(=O)N2CCCCC2)nc1-c1cc2c(cc1OC(F)F)NCCS2)c1cnn2cccnc12` [Example 51, N-[3-[6-(difluoromethoxy)-3,4-dihydro-2H-1,4-benzothiazin-7-yl]-1-[2-oxo-2-(1-piperidyl)ethyl]pyrazol-4-yl]pyrazolo[1,5-a]pyrimidine-3-carboxamide] was tested. Which Ki [1] did it give?
Its Ki is 0.1 nM.

And the IC50 [2]?
Its IC50 is 11 nM.

What about the Ki [3] of the same compound?
The Ki was 0.13 nM.

`O=C(Nc1cn(CC(=O)N2CCC(O)CC2)nc1-c1cc2c(cc1OC(F)F)NCCS2)c1cnn2cccnc12` [Example 52, N-[3-[6-(difluoromethoxy)-3,4-dihydro-2H-1,4-benzothiazin-7-yl]-1-[2-(4-hydroxy-1-piperidyl)-2-oxo-ethyl]pyrazol-4-yl]pyrazolo[1,5-a]pyrimidine-3-carboxamide] was tested. Which Ki [1] did it give?
Its Ki is 0.14 nM.

And the IC50 [2]?
Its IC50 is 285 nM.

What about the Ki [3] of the same compound?
The Ki was 0.16 nM.

How did the Ki [1] turn out when `CCN1CCN(C(=O)Cn2cc(NC(=O)c3cnn4cccnc34)c(-c3cc4cn[nH]c4cc3OC(F)F)n2)CC1` [Example 53, N-[3-[6-(difluoromethoxy)-1H-indazol-5-yl]-1-[2-(4-ethylpiperazin-1-yl)-2-oxo-ethyl]pyrazol-4-yl]pyrazolo[1,5-a]pyrimidine-3-carboxamide] was run?
The Ki was 0.39 nM.

What about the IC50 [2] of the same compound?
Its IC50 is 88 nM.

What about the Ki [3] of the same compound?
Its Ki is 0.25 nM.

For `COc1cc2ccsc2cc1-c1nn(CC(=O)N2CCC(N3CCOCC3)CC2)cc1NC(=O)c1cnn2cccnc12` [Example 54, N-[3-(5-methoxybenzothiophen-6-yl)-1-[2-(4-morpholino-1-piperidyl)-2-oxo-ethyl]pyrazol-4-yl]pyrazolo[1,5-a]pyrimidine-3-carboxamide], which Ki [1] is on record?
The Ki was 2.1 nM.

And the IC50 [2]?
Its IC50 is 46 nM.

And the Ki [3]?
Its Ki is 0.92 nM.

Which results are given for `N#Cc1cc2cc(OC(F)F)c(-c3nn(CC(=O)N4CCC(N5CCOCC5)CC4)cc3NC(=O)c3cnn4cccnc34)cc2s1` [Example 55, N-[3-[2-cyano-5-(difluoromethoxy)benzothiophen-6-yl]-1-[2-(4-morpholino-1-piperidyl)-2-oxo-ethyl]pyrazol-4-yl]pyrazolo[1,5-a]pyrimidine-3-carboxamide]?
Ki [1]: 0.41 nM; IC50 [2]: 20 nM; Ki [3]: 0.41 nM

What does the source list for `NC(=O)c1cc2cc(OC(F)F)c(-c3nn(CC(=O)N4CCC(N5CCOCC5)CC4)cc3NC(=O)c3cnn4cccnc34)cc2s1` [Example 56, N-[3-[2-carbamoyl-5-(difluoromethoxy)benzothiophen-6-yl]-1-[2-(4-morpholino-1-piperidyl)-2-oxo-ethyl]pyrazol-4-yl]pyrazolo[1,5-a]pyrimidine-3-carboxamide]?
Ki [1]: 0.37 nM; IC50 [2]: > 333 nM; Ki [3]: 0.39 nM

Which Ki [1] does the source give for `O=C(Nc1cn(CC(=O)N2CCC(N3CCOCC3)CC2)nc1-c1cc2ccccc2cc1OC(F)F)c1cnn2cccnc12` [Example 57, N-[3-[3-(difluoromethoxy)-2-naphthyl]-1-[2-(4-morpholino-1-piperidyl)-2-oxo-ethyl]pyrazol-4-yl]pyrazolo[1,5-a]pyrimidine-3-carboxamide] here?
The Ki was 0.87 nM.

And the IC50 [2]?
Its IC50 is 17 nM.

And the Ki [3]?
The Ki was 0.56 nM.

With `O=C(Nc1cn(CC(=O)N2CCC(N3CCOCC3)CC2)nc1-c1cc2c(cc1OC(F)F)NCCS2)c1cnn2cccnc12` [Example 58, N-[3-[6-(difluoromethoxy)-3,4-dihydro-2H-1,4-benzothiazin-7-yl]-1-[2-(4-morpholino-1-piperidyl)-2-oxo-ethyl]pyrazol-4-yl]pyrazolo[1,5-a]pyrimidine-3-carboxamide] as the compound, how does the Ki [1] read?
Its Ki is 0.22 nM.

What about the IC50 [2] of the same compound?
The IC50 was 54 nM.

What about the Ki [3] of the same compound?
Its Ki is 0.19 nM.

How did the Ki [1] turn out when `O=C(Nc1cn(CC(=O)N2CCC(CN3CCOCC3)CC2)nc1-c1cc2c(cc1OC(F)F)NCCS2)c1cnn2cccnc12` [Example 59, N-[3-[6-(difluoromethoxy)-3,4-dihydro-2H-1,4-benzothiazin-7-yl]-1-[2-[4-(morpholinomethyl)-1-piperidyl]-2-oxo-ethyl]pyrazol-4-yl]pyrazolo[1,5-a]pyrimidine-3-carboxamide] was run?
Its Ki is 0.23 nM.

What about the IC50 [2] of the same compound?
The IC50 was 25 nM.

What about the Ki [3] of the same compound?
Its Ki is 0.22 nM.
